The source of these data is patent US20260008793A1, “IONIZABLE CATIONIC LIPIDS INCORPORATING SILICON” (ALDEXCHEM KFT., priority 2022, published 2026).

Data set [1] can be described thus: Encapsulation efficiency, RiboGreen RNA assay (Method A). The class given is physicochemical. The settings on record: LNP formulated by Method A. The protocol: (§1) The synthesized lipids were tested in term of in vitro transfection efficacy and toxicity on HeLa cells. In order to perform the mentioned biological tests, appropriate LNPs had to be formulated from the synthesized lipids. The formulation technique was different in Method A and B. The particle size, PDI and zeta potential of resulting LNPs were determined by means of Dynamic Light Scattering technique (DLS). Prior to biological testing the encapsulation efficiency (EE) of the loaded LNPs was determined by using RiboGreen RNA assay. In case of Method A Luciferase-mRNA while in case of Method B GFP-mRNA was transfected into the cells. In parallel with the transfection experiments, toxicity of the investigated LNPs was determined, in case of Method A resazurin assay while in case of Method B MTT assay was used. In the case of some lipids, the apparent pKa in LNPs was determined by using TNS titration based on the method described: Angew Chem Int Ed Engl. 2012, 51 (34), 8529-8533, doi: 10.1002/anie.201203263).
• 1. Preparation of sample stock solutions: In the top row of the 96-well plate (Row A in the plate), add 297 μL of TE buffer pH 7.4 to a single well for each sample plus a single well for a PBS blank using a multichannel pipette. • 2. Add 3 μL of sample (at 0.5 mg/ml) to these wells for a final volume of 300 μL. Add 3 μL of PBS to the blank well. Pipette to mix. This is your stock solution for each sample. The final RNA concentration of these stock solutions should be approximately 4-7 μg/mL. • 3. mRNA-LNP sample setup: • a. Add 50 μL of TE buffer pH 7.5 to the two wells directly below each sample (Rows B and C in the plate). • b. Add 50 μL of sample stock solution from Row A into the wells in Rows B and C (this assay is run in duplicate. All liquid handling should be done using a multichannel pipette). • c. Add 50 μL of Triton buffer to the wells in Rows D and E (in the plate) below each sample. • d. Add 50 μL of sample stock solution from Row A into the wells in Rows D and E. • 4. RiboGreen RNA standard curve setup: Dilute the RNA standard to produce an RNA stock at a final concentration of 20 μg/mL in TE buffer pH 7.4. The final volume should be 150 μL. Set up a standard curve (in duplicate) as using the RNA stock (20 μg/mL siRNA), TE buffer pH 7.5, and Triton buffer according the Table 2 below.
• 5. Once samples and standard curve are plated, incubate the plate at 37° C. for 10 min to lyse mRNA-LNP in the presence of Triton X-100. • 6. Meanwhile, prepare RiboGreen Solution: Sum the total number of sample wells and standard curve wells. Add three to this number, and multiply the total by 100. This is the total volume, in μL, of RiboGreen Solution needed for this assay. In a 15 mL RNAse-free Falcon tube, dilute the RiboGreen Reagent 1:100 into TE buffer pH 7.5 to the total volume calculated. • 7. Addition of RiboGreen Solution and sample readings: Remove a 96-well plate from 37° C. incubator; let it cool to room temperature as RiboGreen binding is somewhat temperature dependent. Add 100 μL of RiboGreen Solution to each well. Pop any air bubbles with a needle. Read using fluorescent plate reader (excitation=480, emission=525). • 8. Sample analysis: Use the data generated by the RiboGreen standard curve to calculate the concentration of mRNA. Transfection Efficiency with Luciferase-mRNA (Method A)

For data set [2], the system named is HeLa cells. Briefly: Transfection efficiency with Luciferase-mRNA, Nano-Glo assay (Method A). The class given is cell-based. The settings on record: 100 ng Luciferase (SecNLuc) mRNA, 24 h, luminescence. The protocol: as §1
• 1. Prepare mRNA solution by adding 100 ng mRNA (SecNLuc, #P009024, RiboPro) to 5 μl Opti-MEM • a. multiply by number of wells, include different concentrations and add 10% extra • b. a standard set-up we use is 100 ng-50 ng-10 ng mRNA/well in triplicate, which would need 528 ng mRNA (includes 10% extra)
• 2. (If applicable) Prepare different concentrations in Opti-MEM (for instance 100/50/10 ng). • 3. Add 10 μl to each well and mix carefully by pipetting. • 4. Mix by swirling the plate horizontally at modest speed. Reverse in direction 3 times. • 5. Incubate for 24 hours (incubator).
This protocol is applied to measure luciferase activity for secreted NanoLuc and is based on the protocol by Promega (Nano-Glo® Luciferase Assay System #N1110-1150). The protocol is designed for a 384-wells plate, but volumes can be changed accordingly for other plates.
• 1. Plate cells (HeLa) in 96-well plate, grow until 80% confluent and transfect with SecNanoLuc mRNA and incubate for the desired period (24 h). • 2. After incubation, the translated protein is accumulated in the medium. Transfer medium to a new plate or tubes • 3. Transfer 12 μl of each sample to a black-walled, clear-bottom 384-well plate • a. Black-walled plates are important to prevent shine-through of luminescence from other wells; alternatively, multiple wells between samples can be left empty • 4. Set-up plate reader • 5. Prepare the desired amount of Nano-Glo® Luciferase Assay Reagent by combining one volume of Nano-Glo® Luciferase Assay Substrate with 50 volumes of Nano-Glo® Luciferase Assay Buffer • a. composition: 100 mM MES pH 6; 1 mM EDTA; 0.5% NP-50; 150 mM KCl; 1 mM DTT; 35 mM Thiourea • b. Briefly spin tubes containing substrate in a microcentrifuge before use • 6. Add and mix (by pipetting) 12 μl Nano-Glo® Luciferase Assay Reagent per well • a. Wait approximately 3 minutes before measuring luminescence. […] Measure luminescence in plate reader using standard protocol luciferase (this includes mixing sample in plate reader)

With `CCCCCCCCOC(CCCCCN(CCCCCC(OCCCCCCCC)O[Si](C)(C)O[Si](C)(C)CCCCCCCC)CCC1CCCN1C)O[Si](C)(C)O[Si](C)(C)CCCCCCCC` (centres unmarked) [Example 118, N-(2-(1-methylpyrrolidin-2-yl)ethyl)-6-(octyloxy)-N-(6-(octyloxy)-6-((1,1,3,3-tetramethyl-3-octyldisiloxaneyl)oxy)hexyl)-6-((1,1,3,3-tetramethyl-3-octyldisiloxaneyl)oxy)hexan-1-amine], the “EE (%)” value in data set [1] was found to be 98%. For the same compound, the “Transfection* (Method A = 100 ng mRNA)” value in data set [2] amounted to 57119.5.
Taken in the same sequence, the figures for `CCCCCCCCC(CCCCCC)CO[Si](C)(C)OC(CCCCCCC)OCCCCCCN(CCCCO)CCC[C@@H](C)C1CCC2C3CCC4C[C@H](OC)CC[C@]4(C)C3CC[C@@]21C` (stereo partly drawn) [Example 223, 13-heptyl-18-hexyl-5-((4R)-4-((3R,10S,13R)-3-methoxy-10,13-dimethylhexadecahydro-1H-cyclopenta[a]phenanthren-17-yl)pentyl)-15,15-dimethyl-12,14,16-trioxa-5-aza-15-silahexacosan-1-ol] were 94% and 2167625.
Taken in the same sequence, the figures for `CCCCCCCC[Si](C)(C)O[Si](C)(C)OC(CCCCCCC)OCCCCCCN(CCCCO)CCC[C@@H](C)C1CCC2C3CCC4C[C@H](OC)CC[C@]4(C)C3CC[C@@]21C` (stereo partly drawn) [Example 219, 13-heptyl-5-((4R)-4-((3R,10S,13R)-3-methoxy-10,13-dimethylhexadecahydro-1H-cyclopenta[a]phenanthren-17-yl)pentyl)-15,15,17,17-tetramethyl-12,14,16-trioxa-5-aza-15,17-disilapentacosan-1-ol] were 98% and 531876.
Turning to `CCCCCCCCCCSC(CCCC)C(=O)OCCCCCCN(CCCCO)CCCCCCOC(CCCCCCC)O[Si](C)(C)OCC(CCCCCC)CCCCCCCC` (centres unmarked) [Example 175, 15-heptyl-20-hexyl-7-(4-hydroxybutyl)-17,17-dimethyl-14,16,18-trioxa-7-aza-17-silaoctacosyl 2-(decylthio)hexanoate], the “EE (%)” value in data set [1] is recorded as 97%. In data set [2], the “Transfection* (Method A = 100 ng mRNA)” value came to 119238.5.
Regarding `CCCCCCCCSC(CCCCCCC)O[Si](C)(C)OCCCCCCN(CCCCO)CCCCCCO[Si](C)(C)OC(CCCCCCC)SCCCCCCCC` (centres unmarked) [Example 115, 15-heptyl-5-(10-heptyl-8,8-dimethyl-7,9-dioxa-11-thia-8-silanonadecyl)-13,13-dimethyl-12,14-dioxa-16-thia-5-aza-13-silatetracosan-1-ol], the “EE (%)” value in data set [1] was found to be 94%. Further, the “Transfection* (Method A = 100 ng mRNA)” value in data set [2] came to 1135215.
Taken in the same sequence, the figures for `CCCCCCCCOC(CCCCCN(CCCCO)CCC[C@@H](C)C1CCC2C3CCC4C[C@H](OC)CC[C@]4(C)C3CC[C@@]21C)O[Si](C)(C)OCC(CCCCCC)CCCCCCCC` (stereo partly drawn) [Example 222, 16-hexyl-5-((4R)-4-((3R,10S,13R)-3-methoxy-10,13-dimethylhexadecahydro-1H-cyclopenta[a]phenanthren-17-yl)pentyl)-13,13-dimethyl-11-(octyloxy)-12,14-dioxa-5-aza-13-silatetracosan-1-ol] were 94% and 1156093.
Taken in the same sequence, the figures for `CCCCCCCCOC(CCCCCCC)O[Si](C)(C)CCCCCCN(CCCCO)CCC[C@@H](C)C1CCC2C3CCC4C[C@H](OC)CC[C@]4(C)C3CC[C@@]21C` (stereo partly drawn) [Example 224, 14-heptyl-5-((4R)-4-((3R,10S,13R)-3-methoxy-10,13-dimethylhexadecahydro-1H-cyclopenta[a]phenanthren-17-yl)pentyl)-12,12-dimethyl-13,15-dioxa-5-aza-12-silatricosan-1-ol] were 97% and 4919513.
Taken in the same sequence, the figures for `CC/C=C\C/C=C\C/C=C\C/C=C\C/C=C\CCCCN(CCCCO)CCCCCC(OCCCCCCCC)O[Si](C)(C)O[Si](C)(C)OCCCCCCCC` (centres unmarked) [Example 200, 4-(((5Z,8Z,11Z,14Z,17Z)-icosa-5,8,11,14,17-pentaen-1-yl)(6-(octyloxy)-6-((1,1,3,3-tetramethyl-3-(octyloxy)disiloxaneyl)oxy)hexyl)amino)butan-1-ol] were 97% and 225921.
Regarding `CCCCCCCCOC(CCCCCN(CCCCCC(OCCCCCCCC)O[Si](C)(C)CCCCCCCC)CCC1CCCN1C)O[Si](C)(C)CCCCCCCC` (centres unmarked) [Example 116, 6-((dimethyl(octyl)silyl)oxy)-N-(6-((dimethyl(octyl)silyl)oxy)-6-(octyloxy)hexyl)-N-(2-(1-methylpyrrolidin-2-yl)ethyl)-6-(octyloxy)hexan-1-amine], in data set [1], the “EE (%)” value was found to be 96%. In data set [2], the “Transfection* (Method A = 100 ng mRNA)” value amounted to 118987.
`CC/C=C\C/C=C\C/C=C\C/C=C\C/C=C\CCCCN(CCCCO)CCCCCC(OCCCCCCCC)O[Si](C)(C)O[Si](C)(C)CCCCCCCC` (centres unmarked) [Example 198, 4-(((5Z,8Z,11Z,14Z,17Z)-icosa-5,8,11,14,17-pentaen-1-yl)(6-(octyloxy)-6-((1,1,3,3-tetramethyl-3-octyldisiloxaneyl)oxy)hexyl)amino)butan-1-ol]: the “EE (%)” value in data set [1] is recorded as 98%. Also, the “Transfection* (Method A = 100 ng mRNA)” value in data set [2] turned out to be 53096.
`CCCCCCCCC(CCCCCC)CO[Si](C)(C)OC(CCCCCCC)OCCCCCCN(CCCCO)CCCCCCOC(=O)C(CCCCCC)CCCCCCCC` (centres unmarked) [Example 137, 15-heptyl-20-hexyl-7-(4-hydroxybutyl)-17,17-dimethyl-14,16,18-trioxa-7-aza-17-silaoctacosyl 2-hexyldecanoate]: the “EE (%)” value in data set [1] is on record as 97%. Besides, the “Transfection* (Method A = 100 ng mRNA)” value in data set [2] is listed as 1713925.
As to `CCCCCCCCOC(CCCCCN(CCCCO)CCCCCCOC(=O)C(CCCCCC)CCCCCCCC)O[Si](C)(C)O[Si](C)(C)OCCCCCCCC` (centres unmarked) [Example 134, 6-((4-hydroxybutyl)(6-(octyloxy)-6-((1,1,3,3-tetramethyl-3-(octyloxy)disiloxaneyl)oxy)hexyl)amino)hexyl 2-hexyldecanoate], the “EE (%)” value in data set [1] was 98%. The “Transfection* (Method A = 100 ng mRNA)” value in data set [2] is reported as 398528.
Taken in the same sequence, the figures for `CCCCCCCCSC(CCCCCCC)O[Si](C)(C)OCCCCCCN(CCCCO)CCCCCCOC(=O)C(CCCCCC)CCCCCCCC` (centres unmarked) [Example 147, 17-heptyl-7-(4-hydroxybutyl)-15,15-dimethyl-14,16-dioxa-18-thia-7-aza-15-silahexacosyl 2-hexyldecanoate] were 96% and 4302243.
